{"source": "patent US10513523B2", "about": "“Imidazopyrazines and pyrazolopyrimidines and their use as AMPA receptor modulators” (Janssen Pharmaceutica NV, priority 2015, dated 2019)"}
{"biological_target": "GluA1o-γ8 (GRIA1o-CACNG8 fusion construct; TARP γ8 dependent AMPA receptor) (Homo sapiens (Human), UniProt P42261+Q8WXS5)", "sequence (P42261 other isoform, or with tags, fused parts or gaps)": "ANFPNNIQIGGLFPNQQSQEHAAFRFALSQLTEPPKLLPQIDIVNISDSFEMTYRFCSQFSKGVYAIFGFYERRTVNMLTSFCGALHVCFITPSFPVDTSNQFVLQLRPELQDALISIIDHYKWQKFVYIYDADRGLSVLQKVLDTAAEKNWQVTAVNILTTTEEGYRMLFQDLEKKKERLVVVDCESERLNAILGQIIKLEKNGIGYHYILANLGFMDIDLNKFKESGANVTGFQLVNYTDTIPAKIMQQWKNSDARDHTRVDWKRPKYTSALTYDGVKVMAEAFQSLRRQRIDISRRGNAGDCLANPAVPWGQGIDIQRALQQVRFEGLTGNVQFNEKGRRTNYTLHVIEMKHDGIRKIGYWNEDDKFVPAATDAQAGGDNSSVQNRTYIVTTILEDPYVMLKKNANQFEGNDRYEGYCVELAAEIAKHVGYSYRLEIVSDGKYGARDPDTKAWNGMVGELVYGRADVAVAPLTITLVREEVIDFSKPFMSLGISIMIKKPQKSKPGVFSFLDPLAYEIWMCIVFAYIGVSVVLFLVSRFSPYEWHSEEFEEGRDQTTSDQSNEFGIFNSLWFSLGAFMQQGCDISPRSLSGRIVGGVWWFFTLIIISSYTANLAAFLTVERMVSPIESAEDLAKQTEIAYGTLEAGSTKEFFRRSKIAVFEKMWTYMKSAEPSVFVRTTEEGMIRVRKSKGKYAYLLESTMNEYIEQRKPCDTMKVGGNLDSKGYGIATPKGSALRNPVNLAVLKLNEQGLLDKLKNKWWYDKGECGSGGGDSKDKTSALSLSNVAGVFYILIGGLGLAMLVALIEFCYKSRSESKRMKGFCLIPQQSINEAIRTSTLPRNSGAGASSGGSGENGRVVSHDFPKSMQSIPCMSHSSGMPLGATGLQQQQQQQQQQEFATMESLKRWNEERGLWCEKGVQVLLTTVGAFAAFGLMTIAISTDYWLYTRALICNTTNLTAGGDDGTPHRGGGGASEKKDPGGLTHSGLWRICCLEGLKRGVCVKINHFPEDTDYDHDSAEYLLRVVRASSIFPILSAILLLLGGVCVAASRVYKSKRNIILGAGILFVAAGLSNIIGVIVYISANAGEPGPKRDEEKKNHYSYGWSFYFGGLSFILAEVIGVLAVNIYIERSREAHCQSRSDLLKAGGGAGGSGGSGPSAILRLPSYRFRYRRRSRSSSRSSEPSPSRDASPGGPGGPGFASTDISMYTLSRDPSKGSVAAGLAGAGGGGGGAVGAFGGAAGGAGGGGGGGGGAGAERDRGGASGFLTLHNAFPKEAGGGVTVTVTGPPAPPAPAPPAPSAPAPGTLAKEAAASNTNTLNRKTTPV", "experiment": "Calcium flux assay (FLIPR), inhibition of glutamate response of GluA1o-γ8 channel", "assay_type": "cell-based", "conditions": "HEK293 cells stably expressing GRIA1o-CACNG8 fusion; 15 μM glutamate; pIC50 = negative log of IC50 in molar; read-out: GluR1-γ8 (pIC50) (converted)", "in_short": "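Potency is the midpoint of a four-parameter logistic fit to control-normalized FLIPR calcium responses elicited by 15 μM glutamate. Stable HEK293 cells carried a fused GluA1o-γ8 construct and were preincubated with compound and calcium dye in pH 7.4 HEPES buffer.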", "units": {"IC50": "nM"}}
{"compound": "CC(=O)N1CCN(c2nccn3c(-c4ccc(O)cc4)c(Cc4ccccc4)nc23)CC1", "note": "[Example 23, 1-[4-[2-Benzyl-3-(4-hydroxyphenyl)imidazo[1,2-a]pyrazin-8-yl]piperazin-1-yl]ethanone]", "IC50": 25.1}
{"compound": "O=c1[nH]c2ccc(-c3c(-c4ccccc4)nn4cnc(C(F)(F)F)cc34)cc2s1", "note": "[Example 224, 6-[2-phenyl-5-(trifluoromethyl)pyrazolo[1,5-c]pyrimidin-3-yl]-3H-1,3-benzothiazol-2-one]", "IC50": 20}
{"compound": "CC(C)(C)c1nn2cnc(C(F)(F)F)cc2c1-c1ccc2[nH]c(=O)sc2c1", "note": "[Example 232, 6-[2-tert-Butyl-5-(trifluoromethyl)pyrazolo[1,5-c]pyrimidin-3-yl]-3H-1,3-benzothiazol-2-one]", "IC50": 316}
{"compound": "CO[C@@H]1CCN(c2nccc3c(-c4ccc5c(c4)CC(=O)N5)c(-c4ccccc4)nn23)C1", "note": "[Example 202, 5-[7-[(3R)-3-Methoxypyrrolidin-1-yl]-2-phenyl-pyrazolo[1,5-c]pyrimidin-3-yl]indolin-2-one]", "IC50": 2.51}
{"compound": "Fc1ccc(-c2nc3c(N4CCOCC4)nccn3c2-c2ccc3[nH]ccc3c2)cc1", "note": "[Example 16, 4-[2-(4-Fluorophenyl)-3-(1H-indol-5-yl)imidazo[1,2-a]pyrazin-8-yl]morpholine]", "IC50": 15.8}
{"compound": "O=C1Cc2cc(-c3c(-c4ccccc4)nc4c(N5CC6(CC6)C5)nccn34)ccc2N1", "note": "[Example 80, 5-[8-(5-Azaspiro[2.3]hexan-5-yl)-2-phenyl-imidazo[1,2-a]pyrazin-3-yl]indolin-2-one]", "IC50": 0.631}
{"compound": "O=c1ccc2cc(-c3c(-c4ccc(F)cc4)nc4c(N5CCOCC5)nccn34)ccc2[nH]1", "note": "[Example 125, 6-[2-(4-Fluorophenyl)-8-morpholino-imidazo[1,2-a]pyrazin-3-yl]-1H-quinolin-2-one]", "IC50": 39.8}
{"compound": "N#Cc1ccc(-c2nc3c(N4CCOCC4)nccn3c2-c2ccc(O)cc2)cc1", "note": "[Example 95, 4-[3-(4-Hydroxyphenyl)-8-morpholino-imidazo[1,2-a]pyrazin-2-yl]benzonitrile]", "IC50": 31.6}
{"compound": "O=c1[nH]c2ccc(-c3c(C4CCC4)nn4cnc(C(F)(F)F)cc34)cc2s1", "note": "[Example 229, 6-[2-Cyclobutyl-5-(trifluoromethyl)pyrazolo[1,5-c]pyrimidin-3-yl]-3H-1,3-benzothiazol-2-one]", "IC50": 15.8}
{"compound": "CC(=O)N1CCN(c2nccn3c(-c4ccc5[nH]c(=O)[nH]c5c4)c(Cc4ccccc4)nc23)CC1", "note": "[Example 19, 5-[8-(4-Acetylpiperazin-1-yl)-2-benzyl-imidazo[1,2-a]pyrazin-3-yl]-1,3-dihydrobenzimidazol-2-one]", "IC50": 3.98}
{"compound": "C[C@H]1COCCN1c1nccn2c(-c3ccc4c(c3)CC(=O)N4)c(-c3ccc(F)cc3)nc12", "note": "[Example 43, 5-[2-(4-Fluorophenyl)-8-[(3S)-3-methylmorpholin-4-yl]imidazo[1,2-a]pyrazin-3-yl]indolin-2-one]", "IC50": 0.631}
{"compound": "CN(C)c1nccn2c(-c3ccc4c(c3)CC(=O)N4)c(C(=O)Nc3ccccc3)nc12", "note": "[Example 144, 8-(Dimethylamino)-3-(2-oxoindolin-5-yl)-N-phenyl-imidazo[1,2-a]pyrazine-2-carboxamide]", "IC50": 6.31}
{"compound": "O=C1Cc2cc(-c3c(-c4ccccc4)nn4c(N5CCC(F)CC5)nccc34)ccc2N1", "note": "[Example 188, 5-[7-(4-Fluoro-1-piperidyl)-2-phenyl-pyrazolo[1,5-c]pyrimidin-3-yl]indolin-2-one]", "IC50": 0.501}
{"compound": "Cc1cnc(N2CCOCC2)n2nc(-c3ccccc3)c(-c3ccc4c(c3)CC(=O)N4)c12", "note": "[Example 208, 5-(4-Methyl-7-morpholino-2-phenyl-pyrazolo[1,5-c]pyrimidin-3-yl)indolin-2-one]", "IC50": 0.126}
{"compound": "N#Cc1ccc(-c2nc3c(N4CCOCC4)nccn3c2-c2ccc3c(c2)CC(=O)N3)cc1", "note": "[Example 102, 4-[8-Morpholino-3-(2-oxoindolin-5-yl)imidazo[1,2-a]pyrazin-2-yl]benzonitrile]", "IC50": 2}
{"compound": "CC(=O)N[C@@H]1CCN(c2nccn3c(-c4ccc5[nH]c(=O)[nH]c5c4)c(-c4ccc(F)cc4)nc23)C1", "note": "[Example 100, N-[(3R)-1-[2-(4-Fluorophenyl)-3-(2-oxo-1,3-dihydrobenzimidazol-5-yl)imidazo[1,2-a]pyrazin-8-yl]pyrrolidin-3-yl]acetamide]", "IC50": 12.6}
{"compound": "CC(C)c1nn2c(N3CCOCC3)nccc2c1-c1ccc2[nH]c(=O)sc2c1", "note": "[Example 240, 6-(2-Isopropyl-7-morpholino-pyrazolo[1,5-c]pyrimidin-3-yl)-3H-1,3-benzothiazol-2-one]", "IC50": 15.8}
{"compound": "O=C1Cc2cc(-c3c(-c4ccc(F)cc4)nn4c(N5CC(O)C5)nccc34)ccc2N1", "note": "[Example 179, 5-[2-(4-Fluorophenyl)-7-(3-hydroxyazetidin-1-yl)pyrazolo[1,5-c]pyrimidin-3-yl]indolin-2-one]", "IC50": 6.31}
{"compound": "COc1nccc2c(-c3ccc4c(c3)CC(=O)N4)c(-c3ccccc3)nn12", "note": "[Example 206, 5-(7-Methoxy-2-phenyl-pyrazolo[1,5-c]pyrimidin-3-yl)indolin-2-one]", "IC50": 398}
{"compound": "O=C1Cc2cc(-c3c(C4CCC4)nn4cnc(C(F)(F)F)cc34)ccc2N1", "note": "[Example 226, 5-[2-Cyclobutyl-5-(trifluoromethyl)pyrazolo[1,5-c]pyrimidin-3-yl]indolin-2-one]", "IC50": 794}
{"compound": "CC(=O)N1CC=C(c2nccn3c(-c4ccc(O)cc4)c(-c4ccc(F)cc4)nc23)CC1", "note": "[Example 130, 1-[4-[2-(4-Fluorophenyl)-3-(4-hydroxyphenyl)imidazo[1,2-a]pyrazin-8-yl]-3,6-dihydro-2H-pyridin-1-yl]ethanone]", "IC50": 158}
{"compound": "CC1COCCN1c1nccc2c(-c3ccc4c(c3)CC(=O)N4)c(-c3ccc(F)cc3)nn12", "note": "(stereo not shown) [Example 177, 5-[2-(4-Fluorophenyl)-7-(3-methylmorpholin-4-yl)pyrazolo[1,5-c]pyrimidin-3-yl]indolin-2-one]", "IC50": 0.2}
{"compound": "O=C1Cc2cc(-c3c(-c4ccccc4)nc4c(N5CC(F)C5)nccn34)ccc2N1", "note": "[Example 81, 5-[8-(3-Fluoroazetidin-1-yl)-2-phenyl-imidazo[1,2-a]pyrazin-3-yl]indolin-2-one]", "IC50": 0.398}
{"compound": "O=C1CN(c2nccc3c(-c4ccc5c(c4)CC(=O)N5)c(-c4ccc(F)cc4)nn23)CCN1", "note": "[Example 168, 5-[2-(4-Fluorophenyl)-7-(3-oxopiperazin-1-yl)pyrazolo[1,5-c]pyrimidin-3-yl]indolin-2-one]", "IC50": 1.26}
{"compound": "CC(C)c1nn2c(N3CCOCC3)ncc(F)c2c1-c1ccc2c(c1)CC(=O)N2", "note": "[Example 235, 5-(4-Fluoro-2-isopropyl-7-morpholino-pyrazolo[1,5-c]pyrimidin-3-yl)indolin-2-one]", "IC50": 501}
{"compound": "O=C1Cc2cc(-c3c(-c4ccccc4)nn4c(N5CC[C@@H](O)[C@H](F)C5)nccc34)ccc2N1", "note": "(relative stereo) [Example 193, trans-5-[7-(3-Fluoro-4-hydroxy-1-piperidyl)-2-phenyl-pyrazolo[1,5-c]pyrimidin-3-yl]indolin-2-one]", "IC50": 0.316}
{"compound": "O=C(c1ccccc1)c1nc2c(N3CCOCC3)nccn2c1-c1ccc(O)cc1", "note": "[Example 151, [3-(4-Hydroxyphenyl)-8-morpholino-imidazo[1,2-a]pyrazin-2-yl]-phenyl-methanone]", "IC50": 12.6}
{"compound": "Cc1cc2c(-c3ccc4c(c3)CC(=O)N4)c(-c3ccccc3)nn2c(N2CCOCC2)n1", "note": "[Example 198, 5-(5-Methyl-7-morpholino-2-phenyl-pyrazolo[1,5-c]pyrimidin-3-yl)indolin-2-one]", "IC50": 3.16}
